Laboratory results published in paper PMC7728077, “Double-Headed Cationic Lipopeptides: An Emerging Class of Antimicrobials” (International Journal of Molecular Sciences, 2020).
Peptide text beside a SMILES is read from it. * marks the point of attachment. Palmitoyl = CCCCCCCCCCCCCCCC(=O)*

How the values were obtained:
[1] = tested on: lipopolysaccharide (LPS) E. coli 055:B5; assay: Isothermal titration calorimetry, binding to LPS; conditions: ITC, two sets of sites model
Protocol: Isothermal titration calorimetry (ITC) experiments were carried out at 298.15 K using an AutoITC isothermal titration calorimeter (MicroCal Inc., GE Healthcare, Northampton, MA, USA) equipped with a 1.4491 mL sample cell and a reference cell. A typical ITC experiment involved a series of consecutive injections of 10.02 µL aliquots of the titrant (2 µL for the first injection only) into the reaction cell, at an interval of 4 min. The stirrer speed was constantly kept at 300 rpm to provide thorough mixing inside the reaction cell. Three types of ITC experiments were performed. These included lipopeptides binding to POPG, POPC, and LPS. […] Final results were evaluated with an ITC module for ORIGIN 7 software, provided by MicroCal, Inc. (Northampton, MA, USA). The binding constant, stoichiometry, and enthalpy of interactions were directly determined from ITC experiment by fitting one of the built-in curve fitting models to the experimental data points. Changes in entropy (∆S°) and the Gibbs free energy (∆G°) were calculated from the following equation: ∆G^°=−RTln(55.5Ka)=∆H^°−T∆S^° where 55.5 is the molar concentration of water, R is the gas constant (1.986 cal·mol^−1·K^−1), and T is the absolute temperature.

E. coli = assay: LIVE/DEAD SYTO9/PI bacterial viability staining, fluorescence microscopy; format: cell-based, Escherichia coli; conditions: 4, 8 and 16 µg/mL (1×, 2×, 4× MIC); at least two independent replicates
Protocol: Bacteria were inoculated in the Luria–Bertani medium and cultured with shaking at 37 °C up to the early exponential phase (A600 = 0.1). Then, 1.5 mL of the cultures were transferred to 5 mL Eppendorf tubes and treated with suitable peptides added at concentrations of 1×, 2×, or 4× MIC. For the negative control, bacteria were treated with a pure vehicle (water). Next, the cells were cultured for 1 or 2 h, as indicated. To obtain a positive control, at the end of the incubation, one portion of bacteria was collected and suspended in 200 µL of 70% ethanol for 5 min. After incubation, bacteria were collected by centrifugation (10 min, 3000× g) and washed twice with 0.85% NaCl. To determine membrane integrity, bacteria were stained with a LIVE/DEAD™ BacLight™ Bacterial Viability Kit (Thermo Fisher Scientific, Waltham, MA, USA) containing two dyes, i.e., a bacterial membrane permeable SYTO9 (green fluorescence) and an impermeable propidium iodide (red fluorescence) that stains only bacteria with damaged membrane. The staining was performed according to the manufacturer instructions. Then, bacteria were collected by centrifugation and washed twice with 0.85% NaCl. Bacteria pellets were suspended in 10 µL of 0.85% NaCl. Next, 3 µL of each suspension were spotted on agarose pads, covered with coverslips and immediately imaged using fluorescence microscope (Leica DMI4000B) with 100× objective. […]

Structure (SMILES): CCCCCCCCCCCCCCCC(=O)NCCCC[C@H](NC(=O)[C@H](CCCCN)NC(=O)[C@@H](N)CCCCN)C(=O)N[C@@H](CCCCN)C(=O)N[C@@H](CCCCN)C(N)=O [KK(KC16)KK-NH2] (H-KKK(Palmitoyl)KK-NH2)
- pKITC1, LPS E. coli 055:B5 ([1]; site 1): 7.67 ± 0.29
- pKITC2, LPS E. coli 055:B5 ([1]; site 2): 6.38 ± 0.14
- membrane integrity of E. coli cells (SYTO9/PI staining) (E. coli): smaller number of red-stained cells than in the case of S. epidermidis
